Experimental data taken from PMC8274818 (Bioorganic & medicinal chemistry, 2019).
In brackets after ≈: the same amount, converted by molar mass.

Test: Kinetic solubility assay
Type: physicochemical
Details: phosphate buffer, pH 7.4, aqueous buffer, kinetic from dmso stock

Row | Structure (SMILES) | solubility kinetic at 6 h [µg/mL]
1 | CCCSc1ccc2nc(NC(=O)OC)[nH]c2c1 [Albendazole, albendazole] | < 1
2 | Nc1ccc(/N=N/c2ccccc2)c(N)n1 [phenazolpyridine] | 27.7 ± 4.49 (≈ 130 µM)
